Measurements: ChEMBL document CHEMBL1201862, “PubChem BioAssay data set” (2004)
Calls of active or inactive are those of the source.

Tests used:
[1] = biological target: T1, Heat shock factor protein 1 (Mus musculus, UniProt P38532); assay: enhancement of HSF1-driven luciferase signal – cell-based, NIH3T3, luminescence, dose retest, confirmation (AID 435004); type: functional;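 note: stress induced by proteasome inhibitor MG132 added 30 min after compound; luciferase reporter driven by HSF1 response element in NIH3T3 cells; actives raise luminescence as potentiators of the MG132 stress response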
T1 sequence (P38532 whole entry): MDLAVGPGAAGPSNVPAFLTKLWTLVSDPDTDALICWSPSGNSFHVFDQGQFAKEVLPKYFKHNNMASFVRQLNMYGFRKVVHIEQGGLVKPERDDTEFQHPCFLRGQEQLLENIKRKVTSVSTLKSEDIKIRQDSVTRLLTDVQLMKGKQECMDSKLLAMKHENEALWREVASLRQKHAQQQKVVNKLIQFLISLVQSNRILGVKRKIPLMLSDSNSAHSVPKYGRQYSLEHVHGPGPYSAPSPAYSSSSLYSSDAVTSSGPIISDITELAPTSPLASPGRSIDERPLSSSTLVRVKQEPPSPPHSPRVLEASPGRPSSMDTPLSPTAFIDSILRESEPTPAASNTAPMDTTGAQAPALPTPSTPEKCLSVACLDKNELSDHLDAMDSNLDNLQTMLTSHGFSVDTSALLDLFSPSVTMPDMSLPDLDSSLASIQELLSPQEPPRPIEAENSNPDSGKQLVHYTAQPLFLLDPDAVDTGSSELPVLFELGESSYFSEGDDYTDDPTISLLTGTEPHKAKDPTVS

[2] = biological target: Protein-tyrosine kinase 2-beta (Homo sapiens, UniProt Q14289);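 note: potency of inhibitors of PYK2 kinase phosphorylation of poly-GT substrate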
Aminopeptidase N = biological target: T2, Aminopeptidase N (Plasmodium falciparum FcB1/Columbia, UniProt O96935); assay: malaria alanyl aminopeptidase activity blockers – biochemical, fluorogenic H-Leu-NHMec substrate, 1536-well (AID 1445); parameters: species or system Plasmodium falciparum 3D7, 3D7
T2 sequence (O96935 whole entry): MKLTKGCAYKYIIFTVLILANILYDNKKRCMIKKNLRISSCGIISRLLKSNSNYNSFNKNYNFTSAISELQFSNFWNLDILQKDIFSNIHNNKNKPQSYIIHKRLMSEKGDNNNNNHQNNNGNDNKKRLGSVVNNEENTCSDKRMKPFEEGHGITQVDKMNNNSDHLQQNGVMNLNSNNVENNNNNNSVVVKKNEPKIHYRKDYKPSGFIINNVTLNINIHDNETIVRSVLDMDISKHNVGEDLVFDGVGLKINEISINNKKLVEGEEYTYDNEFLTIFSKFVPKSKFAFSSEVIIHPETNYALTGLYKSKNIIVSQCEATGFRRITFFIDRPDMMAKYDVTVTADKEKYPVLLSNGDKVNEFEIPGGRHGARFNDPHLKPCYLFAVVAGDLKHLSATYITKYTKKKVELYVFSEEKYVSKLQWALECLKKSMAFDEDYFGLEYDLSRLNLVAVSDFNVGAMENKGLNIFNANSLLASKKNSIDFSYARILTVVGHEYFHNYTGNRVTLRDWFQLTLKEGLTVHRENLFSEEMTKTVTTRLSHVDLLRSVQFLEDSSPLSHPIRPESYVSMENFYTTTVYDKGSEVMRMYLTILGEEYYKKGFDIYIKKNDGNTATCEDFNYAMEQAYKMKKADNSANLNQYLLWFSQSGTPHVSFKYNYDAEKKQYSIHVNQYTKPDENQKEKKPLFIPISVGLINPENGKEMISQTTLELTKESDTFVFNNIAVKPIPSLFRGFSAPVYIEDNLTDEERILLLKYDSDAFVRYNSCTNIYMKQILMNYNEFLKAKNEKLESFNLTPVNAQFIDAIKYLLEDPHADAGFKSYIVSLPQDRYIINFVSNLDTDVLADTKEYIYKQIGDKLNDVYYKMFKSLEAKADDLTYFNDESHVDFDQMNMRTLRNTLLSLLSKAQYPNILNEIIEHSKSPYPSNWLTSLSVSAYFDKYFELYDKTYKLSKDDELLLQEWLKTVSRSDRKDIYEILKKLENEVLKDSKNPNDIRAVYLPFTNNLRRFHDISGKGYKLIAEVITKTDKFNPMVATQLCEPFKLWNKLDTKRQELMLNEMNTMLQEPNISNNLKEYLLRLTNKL

[3] = biological target: Peroxisome proliferator-activated receptor gamma/Nuclear receptor coactivator 1 (Homo sapiens, UniProt P37231); type: functional;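 note: agonist potency as compounds enhance coactivator SRC-1 recruitment to PPARgamma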
[4] = biological target: Peroxisome proliferator-activated receptor gamma/Nuclear receptor coactivator 3 (Homo sapiens, UniProt P37231); type: functional;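 note: agonist potency for raising coactivator recruitment to the receptor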
[5] = biological target: Peroxisome proliferator-activated receptor gamma/Nuclear receptor coactivator 2 (Homo sapiens, UniProt P37231); type: functional;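 note: agonist potency for raising coactivator recruitment to the receptor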
Ion channel NompC = Ion channel NompC (Danio rerio, UniProt Q7T1G6); assay: Fluorescence counterscreen assay for TRPML3 agonists: dose response cell-based high-throughput screening assay to identify agonists of the transient receptor potential channel N1 (TRPN1). [Related pubchem assays: 1526, 1424, 1448 ]; type: functional
Mucolipin-3 = biological target: T3, Mucolipin-3 (Homo sapiens, UniProt Q8TDD5); assay: Dose response cell-based high-throughput screening assay for agonists of the transient receptor potential channel ML3 (TRPML3). [Related pubchem assays: 1526, 1424, 1448 ]; type: functional
T3 sequence (Q8TDD5 whole entry): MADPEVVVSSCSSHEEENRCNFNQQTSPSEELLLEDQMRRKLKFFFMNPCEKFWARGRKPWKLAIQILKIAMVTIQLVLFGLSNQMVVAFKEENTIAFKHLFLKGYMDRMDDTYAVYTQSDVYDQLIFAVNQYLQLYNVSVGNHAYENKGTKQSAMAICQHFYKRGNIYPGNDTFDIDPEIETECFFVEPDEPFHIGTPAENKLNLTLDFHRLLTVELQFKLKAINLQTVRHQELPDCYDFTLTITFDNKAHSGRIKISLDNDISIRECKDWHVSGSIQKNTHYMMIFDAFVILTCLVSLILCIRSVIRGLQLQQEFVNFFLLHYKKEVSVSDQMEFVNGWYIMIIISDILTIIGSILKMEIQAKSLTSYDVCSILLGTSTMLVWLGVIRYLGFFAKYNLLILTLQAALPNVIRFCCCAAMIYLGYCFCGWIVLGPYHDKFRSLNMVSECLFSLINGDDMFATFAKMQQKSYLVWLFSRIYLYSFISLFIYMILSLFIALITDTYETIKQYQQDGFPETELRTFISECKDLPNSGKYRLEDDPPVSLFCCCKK

[6] = Trypanosoma cruzi growth suppression in host cells – NIH3T3 host cells, beta-gal luminescence, confirmation (AID 2044); type: functional, cell-based;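 note: intracellular parasites grown in NIH/3T3 mouse fibroblasts as host cells; luminescent beta-galactosidase reporter signal from transgenic T. cruzi replicating inside host cells; inhibitors lower the luminescence signal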
[7] = system: Streptococcus sp. 'group A'; assay: Streptococcus pyogenes SK(-)GAS viability under kanamycin – luminescence, BacTiterGlo, confirmation, counter-screen for streptokinase expression inhibitor project, dose response (AID 1900); type: functional, organism-based
Streptococcus = assay: GAS UMAA2166 growth inhibition – luminescence, BacTiterGlo, counter-screen for streptokinase expression inhibitor project, dose response (AID 1915); type: functional, organism-based;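 note: potency for reduction of bacterial viability or growth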
[8] = NIH3T3 cell viability loss – ATP luminescence, mouse fibroblasts, counter-screen, dose response (AID 2010); type: functional, cell-based;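 note: cells exposed to compound for about 90 hours before reading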
Streptokinase A = biological target: T4, Streptokinase A (Streptococcus pyogenes serotype M1, UniProt P10520); assay: viability-normalized secreted streptokinase activity reduction – plasminogen activation absorbance, OD405, dose response (AID 1914); type: functional, Streptococcus pyogenes M1 GAS;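 note: secreted streptokinase activity via plasminogen activation per viability signal from cell pellet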
T4 sequence (P10520 whole entry): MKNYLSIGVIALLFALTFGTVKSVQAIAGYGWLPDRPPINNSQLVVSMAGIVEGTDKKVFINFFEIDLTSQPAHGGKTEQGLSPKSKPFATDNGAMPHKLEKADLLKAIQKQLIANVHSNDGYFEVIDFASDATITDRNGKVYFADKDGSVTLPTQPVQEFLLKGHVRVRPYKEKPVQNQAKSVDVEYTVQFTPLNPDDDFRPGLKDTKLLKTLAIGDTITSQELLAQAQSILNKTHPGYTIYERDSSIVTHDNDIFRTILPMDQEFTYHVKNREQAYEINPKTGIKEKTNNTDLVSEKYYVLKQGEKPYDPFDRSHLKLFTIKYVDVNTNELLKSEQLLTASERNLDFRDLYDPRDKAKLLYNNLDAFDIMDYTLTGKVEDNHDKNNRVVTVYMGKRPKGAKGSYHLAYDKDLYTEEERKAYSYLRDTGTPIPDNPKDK

Cytochrome P450 2D6 [9] = biological target: T5, Cytochrome P450 2D6 (Homo sapiens, UniProt P10635)
Cytochrome P450 2D6 [10] = biological target: T5, Cytochrome P450 2D6; assay: qHTS Assay for Inhibitors and Substrates of Cytochrome P450 2D6. [Related pubchem assays: 410 ]; type: ADME; settings: read-out: Potency
Cytochrome P450 2C19 = Cytochrome P450 2C19 (Homo sapiens, UniProt P33261); assay: Cytochrome panel assay with activity outcomes. Panel member name: p450-cyp2c19 Compounds with AC50 equal or less than 10 uM are considered active; type: functional; settings: read-out: AC50
Estrogen receptor beta [11] = biological target: T6, Estrogen receptor beta (Homo sapiens, UniProt Q92731); assay: blockers of SRC-3 recruitment to ERβ – biochemical, ELISA, streptavidin-HRP readout, orthogonal assay, confirmation (AID 1060)
Estrogen receptor beta [12] = biological target: T6, Estrogen receptor beta
[13] = biological target: FAD-linked sulfhydryl oxidase ALR (Homo sapiens, UniProt P55789); assay: ALR-catalysed DTT oxidation blockers – biochemical, H2O2 detection, luminescence, cherry-pick, dose response (AID 493248)
[14] = biological target: Eukaryotic translation initiation factor 4H (Homo sapiens, UniProt Q15056); assay: eIF4H binding inhibition – biochemical, uHTS, fluorescence polarization, translation initiation inhibitor project, primary screen (AID 2012)
[15] = biological target: Polyadenylate-binding protein 1 (Homo sapiens, UniProt P11940); assay: blockers of PABP interaction with poly(A) – biochemical, fluorescence polarization, […] (AID 2014)
[16] = biological target: Glucose-6-phosphate 1-dehydrogenase (Homo sapiens, UniProt P11413); assay: inhibition of Homo sapiens G6PD, dose series – biochemical, fluorescence, selectivity assay for P. falciparum G6PD inhibitor project, dose response (AID 504792); type: functional
Large T antigen = Large T antigen (Simian virus 40, UniProt P03070); type: functional, Betapolyomavirus macacae;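 note: Confirmatory-stage PubChem screen for compounds that inhibit SV40 T antigen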
Cytochrome P450 3A4 = Cytochrome P450 3A4 (Homo sapiens, UniProt P08684); settings: Potency;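 note: confirmatory qHTS run detecting inhibitors and substrates of CYP3A4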

Peroxisome proliferator-activated receptor gamma/Nuclear receptor coactivator 2, sequence (P37231 whole entry): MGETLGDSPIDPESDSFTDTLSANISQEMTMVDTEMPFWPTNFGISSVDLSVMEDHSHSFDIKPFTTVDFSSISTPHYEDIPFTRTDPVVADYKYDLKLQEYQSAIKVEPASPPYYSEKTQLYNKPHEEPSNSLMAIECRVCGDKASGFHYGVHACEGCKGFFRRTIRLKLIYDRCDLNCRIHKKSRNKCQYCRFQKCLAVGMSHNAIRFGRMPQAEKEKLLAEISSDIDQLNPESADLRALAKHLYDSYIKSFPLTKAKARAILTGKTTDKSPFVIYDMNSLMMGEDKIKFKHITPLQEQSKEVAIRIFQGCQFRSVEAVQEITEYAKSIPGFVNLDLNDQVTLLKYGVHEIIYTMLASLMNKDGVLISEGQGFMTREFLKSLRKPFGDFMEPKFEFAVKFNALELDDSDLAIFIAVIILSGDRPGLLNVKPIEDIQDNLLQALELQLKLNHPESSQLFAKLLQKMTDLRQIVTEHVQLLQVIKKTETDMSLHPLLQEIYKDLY
Peroxisome proliferator-activated receptor gamma/Nuclear receptor coactivator 2, sequence (Q15596 whole entry, further chain): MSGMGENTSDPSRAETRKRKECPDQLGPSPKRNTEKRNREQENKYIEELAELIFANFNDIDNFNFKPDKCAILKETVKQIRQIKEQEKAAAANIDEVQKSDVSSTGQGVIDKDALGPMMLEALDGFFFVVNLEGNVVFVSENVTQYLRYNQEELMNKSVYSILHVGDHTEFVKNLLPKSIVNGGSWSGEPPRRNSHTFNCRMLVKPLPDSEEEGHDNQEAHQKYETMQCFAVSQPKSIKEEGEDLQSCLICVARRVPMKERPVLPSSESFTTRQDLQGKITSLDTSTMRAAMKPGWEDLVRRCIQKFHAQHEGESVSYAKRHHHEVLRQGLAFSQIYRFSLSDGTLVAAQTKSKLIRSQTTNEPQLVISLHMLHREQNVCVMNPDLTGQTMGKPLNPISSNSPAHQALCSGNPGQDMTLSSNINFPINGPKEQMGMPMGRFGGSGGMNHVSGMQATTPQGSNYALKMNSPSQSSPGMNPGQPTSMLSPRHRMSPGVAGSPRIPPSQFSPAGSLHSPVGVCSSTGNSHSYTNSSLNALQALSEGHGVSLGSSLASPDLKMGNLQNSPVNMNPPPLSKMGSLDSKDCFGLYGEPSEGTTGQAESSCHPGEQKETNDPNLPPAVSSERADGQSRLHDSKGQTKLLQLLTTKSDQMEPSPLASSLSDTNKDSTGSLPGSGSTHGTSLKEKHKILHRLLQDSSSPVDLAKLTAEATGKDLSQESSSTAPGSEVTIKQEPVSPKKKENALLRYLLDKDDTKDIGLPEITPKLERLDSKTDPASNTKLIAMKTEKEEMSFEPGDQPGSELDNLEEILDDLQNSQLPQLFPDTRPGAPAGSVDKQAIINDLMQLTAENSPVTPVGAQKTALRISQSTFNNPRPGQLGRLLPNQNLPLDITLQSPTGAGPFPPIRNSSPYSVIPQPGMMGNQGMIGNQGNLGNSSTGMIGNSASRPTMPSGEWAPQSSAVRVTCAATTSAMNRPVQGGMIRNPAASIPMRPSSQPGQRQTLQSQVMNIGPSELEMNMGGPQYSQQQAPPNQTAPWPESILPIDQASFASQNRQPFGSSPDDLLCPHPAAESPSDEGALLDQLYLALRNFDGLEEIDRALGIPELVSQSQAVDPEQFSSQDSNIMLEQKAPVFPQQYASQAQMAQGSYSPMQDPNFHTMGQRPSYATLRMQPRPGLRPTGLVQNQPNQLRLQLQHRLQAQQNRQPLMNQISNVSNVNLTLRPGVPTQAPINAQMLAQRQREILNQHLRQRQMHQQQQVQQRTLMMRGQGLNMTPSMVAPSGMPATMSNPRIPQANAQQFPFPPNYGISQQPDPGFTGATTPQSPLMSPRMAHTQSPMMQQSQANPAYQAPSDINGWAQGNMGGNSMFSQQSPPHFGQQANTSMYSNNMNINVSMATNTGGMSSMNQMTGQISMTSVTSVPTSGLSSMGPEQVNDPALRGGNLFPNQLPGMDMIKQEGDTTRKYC
Peroxisome proliferator-activated receptor gamma/Nuclear receptor coactivator 1, sequence (P37231 whole entry): as the sequence (P37231 whole entry) above
Peroxisome proliferator-activated receptor gamma/Nuclear receptor coactivator 1, sequence (Q15788 whole entry, further chain): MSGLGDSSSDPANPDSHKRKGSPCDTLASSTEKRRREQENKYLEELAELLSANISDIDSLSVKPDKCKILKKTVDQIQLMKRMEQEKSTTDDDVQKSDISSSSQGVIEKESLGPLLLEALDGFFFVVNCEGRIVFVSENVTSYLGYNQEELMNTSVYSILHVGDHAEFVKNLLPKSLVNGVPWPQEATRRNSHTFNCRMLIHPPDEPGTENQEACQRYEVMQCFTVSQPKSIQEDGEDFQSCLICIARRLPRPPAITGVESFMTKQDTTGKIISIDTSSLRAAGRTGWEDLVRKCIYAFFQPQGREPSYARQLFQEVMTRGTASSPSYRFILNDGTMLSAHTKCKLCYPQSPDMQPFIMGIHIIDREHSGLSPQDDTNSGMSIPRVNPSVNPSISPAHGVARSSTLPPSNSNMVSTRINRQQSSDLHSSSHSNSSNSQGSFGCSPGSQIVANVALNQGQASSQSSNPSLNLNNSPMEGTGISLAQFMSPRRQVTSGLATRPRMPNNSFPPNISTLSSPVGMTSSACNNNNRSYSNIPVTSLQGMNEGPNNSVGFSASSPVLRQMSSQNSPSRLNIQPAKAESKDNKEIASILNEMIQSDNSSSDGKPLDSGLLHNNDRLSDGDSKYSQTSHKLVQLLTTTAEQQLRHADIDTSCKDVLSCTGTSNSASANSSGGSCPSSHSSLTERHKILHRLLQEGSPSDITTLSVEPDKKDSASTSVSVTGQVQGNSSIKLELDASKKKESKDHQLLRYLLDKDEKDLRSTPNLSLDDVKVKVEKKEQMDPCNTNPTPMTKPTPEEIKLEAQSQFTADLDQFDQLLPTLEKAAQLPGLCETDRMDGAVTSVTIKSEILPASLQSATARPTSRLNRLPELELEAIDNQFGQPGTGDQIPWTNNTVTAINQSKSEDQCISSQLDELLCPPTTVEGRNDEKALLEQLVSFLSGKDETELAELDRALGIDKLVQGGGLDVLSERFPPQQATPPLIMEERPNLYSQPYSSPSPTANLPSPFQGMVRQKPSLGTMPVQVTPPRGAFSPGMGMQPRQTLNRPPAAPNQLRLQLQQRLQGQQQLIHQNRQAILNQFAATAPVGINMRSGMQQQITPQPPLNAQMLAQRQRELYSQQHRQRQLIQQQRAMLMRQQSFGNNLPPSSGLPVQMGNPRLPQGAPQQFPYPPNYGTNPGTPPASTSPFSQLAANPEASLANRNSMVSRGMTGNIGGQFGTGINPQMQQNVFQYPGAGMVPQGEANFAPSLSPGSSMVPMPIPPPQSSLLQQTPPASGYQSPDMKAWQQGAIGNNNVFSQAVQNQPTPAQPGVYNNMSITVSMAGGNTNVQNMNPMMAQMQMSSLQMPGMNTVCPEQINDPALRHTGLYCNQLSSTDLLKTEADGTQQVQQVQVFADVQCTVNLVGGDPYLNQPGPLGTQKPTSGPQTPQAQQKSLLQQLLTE
T6 sequence (Q92731 whole entry): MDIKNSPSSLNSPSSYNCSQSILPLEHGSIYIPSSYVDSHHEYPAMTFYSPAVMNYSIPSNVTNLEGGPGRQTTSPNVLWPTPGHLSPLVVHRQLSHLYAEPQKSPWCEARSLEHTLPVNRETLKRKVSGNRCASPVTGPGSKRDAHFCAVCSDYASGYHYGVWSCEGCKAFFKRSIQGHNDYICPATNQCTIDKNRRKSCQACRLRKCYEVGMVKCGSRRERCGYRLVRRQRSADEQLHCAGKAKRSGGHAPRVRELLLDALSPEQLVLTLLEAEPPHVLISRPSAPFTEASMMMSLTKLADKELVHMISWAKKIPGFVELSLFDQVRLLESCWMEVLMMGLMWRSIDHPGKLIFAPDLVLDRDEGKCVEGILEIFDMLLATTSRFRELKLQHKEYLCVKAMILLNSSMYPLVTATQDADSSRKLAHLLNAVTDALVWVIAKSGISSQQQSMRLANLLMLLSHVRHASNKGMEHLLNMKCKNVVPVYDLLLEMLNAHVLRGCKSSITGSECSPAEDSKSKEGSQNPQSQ
T5 sequence (P10635 whole entry): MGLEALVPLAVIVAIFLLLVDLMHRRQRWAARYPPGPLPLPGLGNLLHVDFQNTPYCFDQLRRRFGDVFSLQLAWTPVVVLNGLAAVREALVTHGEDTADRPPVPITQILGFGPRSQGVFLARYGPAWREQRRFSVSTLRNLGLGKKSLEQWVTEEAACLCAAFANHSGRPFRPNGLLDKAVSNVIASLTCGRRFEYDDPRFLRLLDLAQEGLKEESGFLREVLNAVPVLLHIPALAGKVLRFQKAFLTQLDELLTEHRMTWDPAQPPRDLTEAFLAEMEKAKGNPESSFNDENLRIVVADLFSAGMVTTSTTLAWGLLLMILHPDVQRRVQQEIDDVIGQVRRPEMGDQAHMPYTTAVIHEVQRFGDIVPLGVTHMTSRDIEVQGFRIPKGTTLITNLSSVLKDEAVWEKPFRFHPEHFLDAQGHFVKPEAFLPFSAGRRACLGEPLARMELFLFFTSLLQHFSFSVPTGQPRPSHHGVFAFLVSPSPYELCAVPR

CCOC(=O)c1sc2c(c1C)C(c1cccs1)C1=C(O)CCCC1=N2 (configuration not stated)
EC50 [1]: 80.5 µM (active) | IC50 [2]: > 69.5 µM (not active)

O=C1NC(=S)NC(=O)C1=NNc1cc2c(cc1[N+](=O)[O-])OCO2
IC50 (Aminopeptidase N): 26.9 µM (active)

O=C(Nc1ccc2oc(-c3ccncc3)nc2c1)c1c(F)c(F)c(F)c(F)c1F
EC50 [3]: 25.8 µM (not active) | EC50 [4]: 28.9 µM (not active) | EC50 [5]: 25.6 µM (not active)

CC1(c2ccc(OC(F)F)cc2)NC(=O)N(CC(=O)Nc2ccc(S(N)(=O)=O)cc2)C1=O (configuration not stated)
IC50 (Aminopeptidase N): 28.3 µM (active)

CC1(C)Cc2cccc(Oc3ccc(S(=O)(=O)N4CCCCC4)cn3)c2O1
EC50 (Ion channel NompC): > 29.9 µM (not active) | EC50 (Mucolipin-3): 9.27 µM (active)

CCC(=O)NC(=S)Nc1ccc(NC(=S)NC(=O)c2ccccc2)cc1
EC50 [6]: 0.553 µM (active) | EC50 [3]: > 79.4 µM (not active) | EC50 [7]: 1.23 µM (active) | EC50 [4]: > 79.4 µM (not active) | EC50 (Streptococcus): 38 µM (active) | EC50 [5]: > 79.4 µM (not active) | EC50 [8]: > 60 µM (not active) | EC50 (Streptokinase A): > 150 µM (not active)

Cc1cc2nc3c(=O)[nH]c(=O)nc-3n(CC(O)C(O)C(O)CO)c2cc1C (configuration not stated) [RIBOFLAVIN]
AC50 (Cytochrome P450 2D6 [9]): 12.6 µM (inconclusive) | AC50 (Cytochrome P450 2D6 [10]): 31.6 µM (inconclusive) | AC50 (Cytochrome P450 2C19): 6.31 µM (inconclusive)

Cc1csc(C(C#N)C(=O)c2ccncc2)n1 (configuration not stated)
EC50 [3]: > 79.4 µM (not active) | EC50 [4]: > 79.4 µM (not active) | IC50 (Estrogen receptor beta [11]): > 109 µM (not active) | EC50 [5]: > 79.4 µM (not active) | IC50 (Estrogen receptor beta [12]): 13.9 µM (active)

O=C(c1ccco1)N1CCN=C1SCc1cccnc1
AC50 [13]: 1.19 µM (active)

COc1ccc(S(=O)(=O)NC2CCCCC2)c(C)c1C
EC50 (Ion channel NompC): > 29.9 µM (not active) | EC50 (Mucolipin-3): > 3.32 µM (not active)

C[N+]1(C)C2CCC1CC(OC(=O)c1ccco1)C2 (configuration not stated)
IC50 [14]: > 100 µM (inactive) | IC50 [15]: 7.77 µM (active)

O=C(CCCN1CCC2(CC1)C(=O)N(CCc1ccc(N=C=S)cc1)CN2c1ccccc1)c1ccc(F)cc1
AC50 (Cytochrome P450 2D6 [10]): 15.8 µM (inconclusive)

O=C(CN1CCN(c2ccc(O)cc2)CC1)Nc1cc(S(=O)(=O)N2CCOCC2)ccc1Cl
IC50 [16]: > 80 µM (inactive) | IC50 (Large T antigen): 17 µM (active) | IC50 [14]: 72.2 µM (active) | IC50 [15]: > 100 µM (inactive)

CC12C=C(/C=C/c3ccccc3)C(C)(C1)C(c1ccccc1)CC2=O (configuration not stated)
AC50 (Cytochrome P450 2D6 [10]): 3.16 µM (inconclusive) | AC50 (Cytochrome P450 3A4): 3.16 µM (inconclusive)

CC(=O)NC12CC3CC(C1)CC(C(=O)OCC(=O)Nc1ncc(Cl)c(C)c1Cl)(C3)C2
IC50 (Estrogen receptor beta [11]): < 0.023 µM (not active) | IC50 (Estrogen receptor beta [12]): 9.36 µM (active)

Cc1onc(-c2ccccc2)c1C(=O)N(Cc1ccco1)Cc1cccs1
EC50 (Ion channel NompC): > 29.9 µM (not active) | EC50 (Mucolipin-3): 12.4 µM (not active)

CCN(CCNS(=O)(=O)c1ccc2nc(O)sc2c1)c1ccccc1
AC50 [13]: 1.17 µM (active)
